According to patent US4284620A, “N-(2-Hydroxyethyl)-2,4,6-triiodo-3,5-bis-(2-keto-L-gulonamido)benzamide and radiological compositions containing same” (Mallinckrodt, Inc., priority 1979, dated 1981):
Values after ≈ are worked out from the molar mass of the structure shown. Like-named read-outs stand apart in the source and are kept apart here.

Assays:
[1] = Stability in aqueous solution by tlc and lc analysis; type: physicochemical
Procedure: (§1) Nmr data are consistent with the assigned structure IX. The compound softens with darkening at 233°-238° and decomposes above 240°.

[2] = system: dogs; assay: Acute Intracisternal Neurotoxicity in Dogs; settings: dog, in vivo
Procedure: (§2) Adult dogs of either sex were employed for this procedure and were briefly anesthetized with thiopentol sodium during the injection of a solution of the PRODUCT. The compound was administered into cerebrospinal fluid at the cisterna magna at varying concentrations but at a constant 0.5 ml/kg volume dose. Animals were thereafter observed for neurotoxicity with the following results: […]

[3] = Acute Intracisternal Neurotoxicity in Dogs; settings: dog, in vivo; dogs, intracisternal, 244 mg I/kg; read-out: Respiratory arrest (death)
Procedure: as §2

[4] = system: subarachnoid space; assay: Radiographic visualization in rat after intracisternal injection; type: in vivo; settings: 175 mg I/kg (37% I solution) intracisternally, 10 seconds after administration
Procedure: A pentobarbital-anesthetized rat (233 gm) received 175 mg I/kg (37% I solution) of the compound intracisternally.

[5] = Solubility in water; type: physicochemical
Procedure: as §1
Elemental analysis; Calcd for C21 H26 I3 N3 O14 (after correction for 3.58% H2 O): C, 26.29; H, 3.13; I, 39.67; N, 4.38; Found: C, 26.20; H, 3.12; N, 4.09; I, not determined.

[6] = system: Swiss mice; assay: Acute Intravenous Toxicity in Mice; settings: mice, intravenous, 400 mg I/ml, 1 ml/min, seven day observation; 95% confidence limits 16,499-20,075
Procedure: (§3) The following pharmacological studies were run on the N-(2-hydroxyethyl)-2,4,6-triiodo-3,5-bis-(2-keto-L-gulonamido)benzamide prepared according to Method B (PRODUCT).
(§4) A solution of the PRODUCT was injected into the lateral tail vein of yound adult male and female Swiss mice at a rate of 1 ml/min.

[7] = in vivo; settings: mouse, in vivo, iv
Procedure: as §3, §4

[8] = system: Swiss mice; assay: Acute Intracerebral Toxicity in Mice; settings: mice, intracerebral, 350-450 mg I/ml, seven day observation; 95% confidence limits 560-4806
Text: as §3
(§5) Employing a slightly modified version of the technique developed by Haley and McCormick (Brit. J. Pharmacol. 12: 12-15, 1957), young adult male and female Swiss mice received injections of a solution of the PRODUCT directly into lateral ventricles and brain tissue.

[9] = in vivo; settings: mouse, in vivo
Text: as §3, §5

[10] = system: Sprague Dawley rats; assay: Acute Intracisternal Toxicity in Rats; settings: rats, intracisternal, 400 mg I/ml, two day observation; 95% confidence limits 462-655
Text: as §3
(§6) A variation of the technique described by Melartin et al. (Invest. Radiol. 5: 13-21, 1970) was utilized to evaluate lethal effects of a solution of the PRODUCT after injection into cerebrospinal fluid at the cisterna magna. Young adult male and female Sprague Dawley rats were used. After dosing, the animals were housed individually and observed for immediate reactions and periodically for a two day observation period.

[11] = in vivo; settings: rat, in vivo
Text: as §3, §6

[12] = system: vascular and urinary systems; assay: Radiographic visualization in mouse after intravenous injection; type: in vivo; settings: I.V.
Procedure: A female mouse (19 g) was anesthetized with sodium pentobarbital (60 mg/kg, i/p.).

## O=C(Nc1c(I)c(NC(=O)C(=O)[C@@H](O)[C@H](O)[C@@H](O)CO)c(I)c(C(=O)NCCO)c1I)C(=O)[C@@H](O)[C@H](O)[C@@H](O)CO [IX, N-(2-Hydroxyethyl)-2,4,6-triiodo-3,5-bis-(2-keto-L-gulonamido)benzamide]
[1]
  stable in aqueous solution: stable in aqueous solution
[2]
  Minimum Convulsion Dose: > 244 mg I/kg
[3]
  mortality: 50%
[4]
  visualization of the subarachnoid space in the upper cervical, cisternal and basal cistern regions: good visualization of the subarachnoid space
[5]; Method A product, read-out: highly water soluble
  solubility: ≥ 1000 mg/mL
[5]; Method B product, read-out: solubility
  solubility: 1000 mg/mL (≈ 1080 mM)
[6]
  LD50: 18,200 mg I/kg
[7]
  LD50 at 168 h: 44200 mg/kg
[8]
  LD50: 1,640 mg I/kg
[9]
  LD50 at 168 h: 3980 mg/kg
[10]
  LD50: 550 mg I/kg
[11]
  LD50 at 48 h: 1340 mg/kg
[12]; female mouse, 10,000 mg I/kg (37% I solution), 5 seconds after administration
  visualization of the vascular system, whole body left lateral radiograph: good visualization of the vascular system
[12]; mouse, 30 seconds after contrast administration
  images of the vascular system, posteroanterior radiograph: good images of the vascular
[12]; mouse, 5 minutes after contrast administration
  images of the urinary system, posteroanterior radiograph: good images of the vascular and urinary systems
